Test results: US20250326748A1, “COMPOUNDS AND METHODS FOR MODULATING SPLICING” (REMIX THERAPEUTICS INC., priority 2022, published 2025)
Structures can show the parent of a compound that is named as a salt.

tested on: HiBiT-tagged MYB protein; assay: HiBiT protein abundance assay, MYB (K562 HiBiT knock-in); format: cell-based, human; conditions: HiBiT knock-in cells, 24 hours
Procedure, shortened: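 Endogenously HiBiT-tagged K562 knock-in lines treated 24 h at 37 °C with 10-point 3-fold dilutions (top 10 μM final, DMSO ≤0.25%) in IMDM+1% FBS. Lytic Nano-Glo luminescence normalized to DMSO and unmodified K562 controls; four-parameter fit gives 50%-abundance concentration (IC50).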

| Compound | IC50 |
| --- | --- |
| Cc1cn2nc(-c3ccc4cc(NC5CCNCC5)cnc4n3)cc(C)c2n1 [Compound 210, 7-{2,8-dimethylimidazo[1,2-b]pyridazin-6-yl}-N-(piperidin-4-yl)-1,8-naphthyridin-3-amine; trifluoroacetic acid] | 1000 to 10000 nM |
| Cn1cc2cc(-c3cc(Cl)c4cc(N5CCN6CCCC6C5)cnc4n3)cc(F)c2n1 (centres unmarked) [Compound 216, 4-chloro-2-(7-fluoro-2-methylindazol-5-yl)-6-{hexahydro-1H-pyrrolo[1,2-a]pyrazin-2-yl}-1,8-naphthyridine trifluoroacetic acid] | 100 to 1000 nM |
| CN[C@@H]1CCN(c2cnc3nc(-c4cc(F)c5nc(C)cn5c4)ncc3c2)C1 [Compound 202, (3R)-1-(2-{8-fluoro-2-methylimidazo[1,2-a]pyridin-6-yl}pyrido[2,3-d]pyrimidin-6-yl)-N-methylpyrrolidin-3-amine] | < 100 nM |
| C[C@@H]1CN(c2cnc3nc(-c4cc5cn(C)nc5c(F)c4O)ccc3c2)C[C@H](C)N1 [Compound 206] | < 100 nM |
| CN[C@@H]1CCN(c2cnc3nc(-c4cc5cn(C)nc5c(C)c4O)nc(OC)c3c2)C1 [Compound 211, 5-{4-methoxy-6-[(3R)-3-(methylamino)pyrrolidin-1-yl]pyrido[2,3-d]pyrimidin-2-yl}-2,7-dimethylindazol-6-ol] | < 100 nM |
| Cc1cn2nc(-c3ccc4cc(N(C)C5CCNCC5)cnc4n3)cc(C)c2n1 [Compound 205, 7-{2,8-dimethylimidazo[1,2-b]pyridazin-6-yl}-N-methyl-N-(piperidin-4-yl)-1,8-naphthyridin-3-amine] | 1000 to 10000 nM |
| COc1nc(-c2cc3cn(C)nc3c(F)c2O)nc2ncc(N3C[C@@H](C)N[C@@H](C)C3)cc12 [Compound 218] | < 100 nM |
| Cc1cn2cc(-c3cnc4nc(C5CCNCC5)ccc4c3)cc(C)c2n1 [Compound 201] | 1000 to 10000 nM |
| Cc1c(O)c(-c2cc(Cl)c3cc(N(C)C4CCNC4)cnc3n2)cc2cn(C)nc12 (centres unmarked) [Compound 204, 5-[4-chloro-6-(367pyrrolidine-3-ylamino)-1,8-naphthyridin-2-yl]-2,7-dimethylindazol-6-ol] | 100 to 1000 nM |
| CN[C@H]1CCN(c2cnc3nc(-c4cc5cn(C)nc5c(C)c4O)nc(OC)c3c2)C1 [Compound 212, 5-{4-methoxy-6-[(3S)-3-(methylamino)pyrrolidin-1-yl]pyrido[2,3-d]pyrimidin-2-yl}-2,7-dimethylindazol-6-ol] | < 100 nM |
| C[C@@H]1CN(c2cnc3nc(-c4cc(F)c5nn(C)cc5c4)cc(Cl)c3c2)C[C@H](C)N1 [Compound 215] | 100 to 1000 nM |
| C[C@@H]1CN(c2cnc3nc(-c4cc5cn(C)nc5cc4O)cc(Cl)c3c2)C[C@@H](C)N1 [Compound 243, 5-{4-chloro-6-[(3R,5R)-3,5-dimethylpiperazin-1-yl]-1,8-naphthyridin-2-yl}-2-methylindazol-6-ol hydrochloride] | 100 to 1000 nM |
| Cc1c(O)c(-c2ncc3cc(N4C[C@@H](C)N[C@@H](C)C4)cnc3n2)cc2cn(C)nc12 [Compound 214] | 100 to 1000 nM |
| CNC1CCN(c2cnc3nc(-c4cc5cn(C)nc5c(C)c4O)ccc3n2)C1 (centres unmarked) [Compound 192, 2,7-dimethyl-5-{2-[3-(methylamino)337pyrrolidine-1-yl]pyrido[2,3-b]pyrazin-6-yl}indazol-6-ol] | 100 to 1000 nM |
| C[C@@H]1CN(c2cnc3nc(-c4cc5cn(C)nc5c(F)c4O)cc(C#N)c3c2)C[C@H](C)N1 [Compound 266, 6-[(3R,5S)-3,5-dimethylpiperazin-1-yl]-2-(7-fluoro-6-hydroxy-2-methylindazol-5-yl)-1,8-naphthyridine-4-carbonitrile hydrochloride] | < 100 nM |
| Cn1cc2cc(-c3cnc4cc(N5CCC(NC6CC6)C5)ccc4n3)c(O)c(F)c2n1 (centres unmarked) [Compound 175, 5-[6-[3-(cyclopropylamino)pyrrolidin-1-yl]quinoxalin-2-yl]-7-fluoro-2-methyl-indazol-6-ol] | < 100 nM |
| Cn1cc2cc(-c3cnc4nc(N5CCNCC5)cc(Cl)c4c3)cc(F)c2n1 [Compound 101, 4-chloro-6-(7-fluoro-2-methyl-2H-indazol-5-yl)-2-(piperazin-1-yl)-1,8-naphthyridine] | < 100 nM |
| COc1nc(-c2cc3cn(C)nc3c(C)c2O)nc2ncc(N3CCNCC3)cc12 [Compound 162, 5-[4-methoxy-6-(piperazin-1-yl)pyrido[2,3-d]pyrimidin-2-yl]-2,7-dimethylindazol-6-ol] | < 100 nM |
| Cc1c(O)c(-c2ccc3nc(N4C[C@@H](C)N[C@@H](C)C4)cnc3n2)cc2cn(C)nc12 [Compound 195, 5-{2-[(3R,5S)-3,5-dimethylpiperazin-1-yl]pyrido[2,3-b]pyrazin-6-yl}-2,7-dimethylindazol-6-ol] | 100 to 1000 nM |
| Cc1c(O)c(-c2ncc3cc(N4CC[C@H](N)C4)cnc3n2)cc2cn(C)nc12 [Compound 160, (S)-5-(6-(3-aminopyrrolidin-1-yl)pyrido[2,3-d]pyrimidin-2-yl)-2,7-dimethyl-2H-indazol-6-ol 2,2,2-trifluoroacetate] | < 100 nM |
